Measured values taken from the NIST ThermoML archive (doi:10.1021/je500804j).
Numbers after ± are expanded uncertainties.

Test: mn = molality of the nth substance listed, in mol/kg
Conditions: 101 kPa, Liquid, Alternating current cell with electrodes

CCCCCCCC[N+](C)(C)CCCCCCCCCCCC[N+](C)(C)CCCCCCCC.[Br-].[Br-] + O
Conditions	electrical conductivity [S/m]
288.15 K, m1 = 0.00524	0.0948 ± 0.00046
288.15 K, m1 = 0.00825	0.1292 ± 0.00057
288.15 K, m1 = 0.01026	0.1522 ± 0.00065
288.15 K, m1 = 0.01325	0.1863 ± 0.00078
288.15 K, m1 = 0.01696	0.2286 ± 0.00094
288.15 K, m1 = 0.01986	0.2617 ± 0.0011
288.15 K, m1 = 0.02257	0.2928 ± 0.0012
288.15 K, m1 = 0.02469	0.3169 ± 0.0013
288.15 K, m1 = 0.0276	0.3349 ± 0.0014
288.15 K, m1 = 0.03026	0.3455 ± 0.0014
288.15 K, m1 = 0.03258	0.3547 ± 0.0014
288.15 K, m1 = 0.03485	0.3637 ± 0.0015
288.15 K, m1 = 0.03697	0.3722 ± 0.0015
288.15 K, m1 = 0.03965	0.3828 ± 0.0015
288.15 K, m1 = 0.0414	0.3897 ± 0.0016
288.15 K, m1 = 0.04287	0.3956 ± 0.0016
288.15 K, m1 = 0.04499	0.404 ± 0.0016
288.15 K, m1 = 0.04668	0.4107 ± 0.0016
288.15 K, m1 = 0.04802	0.416 ± 0.0017
288.15 K, m1 = 0.04996	0.4237 ± 0.0017
288.15 K, m1 = 0.05094	0.4276 ± 0.0017
288.15 K, m1 = 0.05281	0.435 ± 0.0017
288.15 K, m1 = 0.0543	0.441 ± 0.0018
288.15 K, m1 = 0.0552	0.4446 ± 0.0018
288.15 K, m1 = 0.05651	0.4497 ± 0.0018
288.15 K, m1 = 0.05808	0.456 ± 0.0018
288.15 K, m1 = 0.05949	0.4616 ± 0.0019
288.15 K, m1 = 0.06045	0.4654 ± 0.0019
288.15 K, m1 = 0.06136	0.469 ± 0.0019
288.15 K, m1 = 0.06193	0.4713 ± 0.0019
293.15 K, m1 = 0.00394	0.05156 ± 0.00033
293.15 K, m1 = 0.00765	0.1034 ± 0.0005
293.15 K, m1 = 0.01114	0.1525 ± 0.00066
293.15 K, m1 = 0.01444	0.1943 ± 0.00081
293.15 K, m1 = 0.01756	0.229 ± 0.00094
293.15 K, m1 = 0.02051	0.2582 ± 0.001
293.15 K, m1 = 0.02331	0.2806 ± 0.0011
293.15 K, m1 = 0.02597	0.3012 ± 0.0012
293.15 K, m1 = 0.0285	0.316 ± 0.0013
293.15 K, m1 = 0.03091	0.3286 ± 0.0013
293.15 K, m1 = 0.0332	0.3423 ± 0.0014
293.15 K, m1 = 0.03539	0.3542 ± 0.0014
293.15 K, m1 = 0.03749	0.3651 ± 0.0015
293.15 K, m1 = 0.03949	0.3739 ± 0.0015
293.15 K, m1 = 0.0414	0.3836 ± 0.0015
293.15 K, m1 = 0.04323	0.3916 ± 0.0016
293.15 K, m1 = 0.04499	0.4007 ± 0.0016
293.15 K, m1 = 0.04668	0.4081 ± 0.0016
293.15 K, m1 = 0.0483	0.4165 ± 0.0017
293.15 K, m1 = 0.04986	0.4238 ± 0.0017
293.15 K, m1 = 0.05136	0.4302 ± 0.0017
293.15 K, m1 = 0.05281	0.436 ± 0.0018
293.15 K, m1 = 0.0542	0.4419 ± 0.0018
293.15 K, m1 = 0.05554	0.4484 ± 0.0018
293.15 K, m1 = 0.05683	0.4533 ± 0.0018
293.15 K, m1 = 0.05808	0.4587 ± 0.0018
293.15 K, m1 = 0.05929	0.4642 ± 0.0019
293.15 K, m1 = 0.06045	0.4689 ± 0.0019
293.15 K, m1 = 0.06158	0.4733 ± 0.0019
293.15 K, m1 = 0.06267	0.4778 ± 0.0019
298.15 K, m1 = 0.00394	0.04358 ± 0.00038
298.15 K, m1 = 0.00765	0.1152 ± 0.00058
298.15 K, m1 = 0.01115	0.1707 ± 0.00075
298.15 K, m1 = 0.01445	0.2175 ± 0.00092
298.15 K, m1 = 0.01541	0.2303 ± 0.00096
298.15 K, m1 = 0.01634	0.2425 ± 0.001
298.15 K, m1 = 0.01727	0.2535 ± 0.001
298.15 K, m1 = 0.01818	0.2637 ± 0.0011
298.15 K, m1 = 0.01907	0.2737 ± 0.0011
298.15 K, m1 = 0.01995	0.2808 ± 0.0011
298.15 K, m1 = 0.02081	0.2903 ± 0.0012
298.15 K, m1 = 0.02167	0.2984 ± 0.0012
298.15 K, m1 = 0.0225	0.306 ± 0.0013
298.15 K, m1 = 0.02333	0.3152 ± 0.0013
298.15 K, m1 = 0.02414	0.3211 ± 0.0013
298.15 K, m1 = 0.02494	0.3283 ± 0.0013
298.15 K, m1 = 0.02573	0.3337 ± 0.0014
298.15 K, m1 = 0.02651	0.3387 ± 0.0014
298.15 K, m1 = 0.02727	0.3443 ± 0.0014
298.15 K, m1 = 0.02802	0.349 ± 0.0014
298.15 K, m1 = 0.02877	0.3546 ± 0.0014
298.15 K, m1 = 0.0295	0.36 ± 0.0014
298.15 K, m1 = 0.03022	0.3649 ± 0.0015
298.15 K, m1 = 0.0314	0.3728 ± 0.0015
298.15 K, m1 = 0.03255	0.382 ± 0.0015
298.15 K, m1 = 0.03367	0.3883 ± 0.0016
298.15 K, m1 = 0.03477	0.3965 ± 0.0016
298.15 K, m1 = 0.03689	0.4084 ± 0.0016
298.15 K, m1 = 0.03892	0.4221 ± 0.0017
298.15 K, m1 = 0.04086	0.4336 ± 0.0018
298.15 K, m1 = 0.04272	0.4435 ± 0.0018
298.15 K, m1 = 0.0445	0.4525 ± 0.0018
298.15 K, m1 = 0.04621	0.4635 ± 0.0019
298.15 K, m1 = 0.04785	0.4712 ± 0.0019
298.15 K, m1 = 0.04943	0.4799 ± 0.0019
298.15 K, m1 = 0.05094	0.489 ± 0.002
298.15 K, m1 = 0.0524	0.4951 ± 0.002
298.15 K, m1 = 0.05381	0.5029 ± 0.002
298.15 K, m1 = 0.05517	0.5103 ± 0.0021
298.15 K, m1 = 0.05648	0.5162 ± 0.0021
298.15 K, m1 = 0.05774	0.5226 ± 0.0021
303.15 K, m1 = 0.00388	0.06075 ± 0.00048
303.15 K, m1 = 0.00752	0.1306 ± 0.00064
303.15 K, m1 = 0.01257	0.2181 ± 0.00094
303.15 K, m1 = 0.01415	0.2351 ± 0.00098
303.15 K, m1 = 0.01508	0.2505 ± 0.0011
303.15 K, m1 = 0.01599	0.2653 ± 0.0011
303.15 K, m1 = 0.01688	0.2779 ± 0.0011
303.15 K, m1 = 0.01776	0.2879 ± 0.0012
303.15 K, m1 = 0.01863	0.2986 ± 0.0012
303.15 K, m1 = 0.01948	0.3128 ± 0.0013
303.15 K, m1 = 0.02031	0.321 ± 0.0013
303.15 K, m1 = 0.02194	0.3372 ± 0.0014
303.15 K, m1 = 0.02274	0.3504 ± 0.0014
303.15 K, m1 = 0.02352	0.3547 ± 0.0014
303.15 K, m1 = 0.02429	0.3646 ± 0.0015
303.15 K, m1 = 0.02505	0.3691 ± 0.0015
303.15 K, m1 = 0.02652	0.3816 ± 0.0015
303.15 K, m1 = 0.02725	0.3867 ± 0.0016
303.15 K, m1 = 0.02796	0.3925 ± 0.0016
303.15 K, m1 = 0.02866	0.398 ± 0.0016
303.15 K, m1 = 0.02935	0.4046 ± 0.0016
303.15 K, m1 = 0.03003	0.4126 ± 0.0017
303.15 K, m1 = 0.03114	0.4192 ± 0.0017
303.15 K, m1 = 0.03222	0.4277 ± 0.0017
303.15 K, m1 = 0.03327	0.4359 ± 0.0018
303.15 K, m1 = 0.0343	0.4466 ± 0.0018
303.15 K, m1 = 0.03531	0.4517 ± 0.0018
303.15 K, m1 = 0.03629	0.4591 ± 0.0019
303.15 K, m1 = 0.03725	0.4681 ± 0.0019
303.15 K, m1 = 0.03819	0.4739 ± 0.0019
303.15 K, m1 = 0.03911	0.4794 ± 0.0019
303.15 K, m1 = 0.04	0.4859 ± 0.002
303.15 K, m1 = 0.04174	0.4978 ± 0.002
303.15 K, m1 = 0.0434	0.5113 ± 0.0021
303.15 K, m1 = 0.04498	0.5211 ± 0.0021
303.15 K, m1 = 0.04651	0.5314 ± 0.0022
303.15 K, m1 = 0.04797	0.5413 ± 0.0022
303.15 K, m1 = 0.04938	0.5513 ± 0.0022
303.15 K, m1 = 0.05073	0.56 ± 0.0023
303.15 K, m1 = 0.05203	0.5681 ± 0.0023
303.15 K, m1 = 0.05328	0.5759 ± 0.0023
303.15 K, m1 = 0.05448	0.5835 ± 0.0024
308.15 K, m1 = 0.00358	0.06093 ± 0.00052
308.15 K, m1 = 0.00694	0.1384 ± 0.0007
308.15 K, m1 = 0.01011	0.2008 ± 0.0009
308.15 K, m1 = 0.01163	0.23 ± 0.00099
308.15 K, m1 = 0.01311	0.2551 ± 0.0011
308.15 K, m1 = 0.01539	0.2922 ± 0.0012
308.15 K, m1 = 0.01622	0.3053 ± 0.0013
308.15 K, m1 = 0.01704	0.3166 ± 0.0013
308.15 K, m1 = 0.01784	0.3262 ± 0.0013
308.15 K, m1 = 0.01863	0.3371 ± 0.0014
